Data published in ChEMBL document CHEMBL4507307 (2021).

Columns and labels:
[1] = target: Kappa-type opioid receptor (Homo sapiens, UniProt P41145); assay: GPCRScan assay: inhibition of KOR; design: radioligand conc. used [nm] 0.6 – 1.2, parental cells stable HEK
[2] = target: Alpha-2A adrenergic receptor (Homo sapiens, UniProt P08913); assay: GPCRScan assay: inhibition of Alpha2A; design: radioligand conc. used [nm] 1.0 – 3.0, parental cells stable MDCK
[3] = target: Muscarinic acetylcholine receptor M1 (Homo sapiens) (UniProt P11229); settings: Compound concentration 10.0 uM
[4] = target: Alpha-1A adrenergic receptor (Homo sapiens, UniProt P35348); assay: GPCRScan assay: inhibition of Alpha1A; design: radioligand conc. used [nm] 0.2 - 1.0, parental cells stable HEK
[5] = target: 5-hydroxytryptamine receptor 2C (Homo sapiens, UniProt P28335); assay: GPCRScan assay: inhibition of 5-HT2C; design: radioligand conc. used [nm] 1.0 – 2.5, parental cells HEK T
[6] = target: Sigma intracellular receptor 2 (Homo sapiens, UniProt Q5BJF2); assay: GPCRScan assay: inhibition of Sigma 2; design: radioligand conc. used [nm] 5.0, parental cells HEKT
[7] = target: 5-hydroxytryptamine receptor 1A (Homo sapiens, UniProt P08908); assay: GPCRScan assay: inhibition of 5-HT1A; design: radioligand conc. used [nm] 0.5 – 1.0, parental cells stable CHO
[8] = target: Mu-type opioid receptor (Homo sapiens, UniProt P35372); assay: GPCRScan assay: inhibition of MOR; design: radioligand conc. used [nm] 1.0 – 2.0, parental cells stable HEK
[9] = target: Beta-3 adrenergic receptor (Homo sapiens, UniProt P13945); settings: Compound concentration 10.0 uM
[10] = target: Histamine H2 receptor (Homo sapiens, UniProt P25021); assay: GPCRScan assay: inhibition of H2; design: radioligand conc. used [nm] 0.02 – 0.05, parental cells Stable HEK
[11] = target: Alpha-1D adrenergic receptor (Homo sapiens, UniProt P25100); assay: GPCRScan assay: inhibition of Alpha1D; design: radioligand conc. used [nm] 0.3 – 1.0, parental cells stable
[12] = target: D(2) dopamine receptor (Homo sapiens, UniProt P14416); assay: GPCRScan assay: inhibition of D2; design: radioligand conc. used [nm] 0.4 – 1.0, parental cells stable fibroblast
[13] = target: 5-hydroxytryptamine receptor 6 (Homo sapiens) (UniProt P50406); settings: Compound concentration 10.0 uM
[14] = target: 5-hydroxytryptamine receptor 5A (Homo sapiens, UniProt P47898); assay: GPCRScan assay: inhibition of 5-HT5A; design: radioligand conc. used [nm] 2.0 - 3.3, parental cells Flp-In CHO
[15] = target: Alpha-2C adrenergic receptor (Homo sapiens, UniProt P18825); assay: GPCRScan assay: inhibition of Alpha2C; design: radioligand conc. used [nm] 0.5 – 1.0, parental cells stable MDCK
[16] = target: Ephrin type-A receptor 2 (Homo sapiens) (UniProt P29317); assay: EPHA2 Kinase activity screen
[17] = target: Casein kinase I isoform alpha (Homo sapiens) (UniProt P48729); assay: CSNK1A1 (CK1 alpha 1) Kinase activity screen
[18] = target: Serine/threonine-protein kinase Nek2 (Homo sapiens) (UniProt P51955); assay: NEK2 Kinase activity screen
[19] = target: Dual specificity tyrosine-phosphorylation-regulated kinase 1B (Homo sapiens, UniProt Q9Y463); assay: DYRK1B Kinase activity screen
[20] = target: Homeodomain-interacting protein kinase 2 (Homo sapiens) (UniProt Q9H2X6); assay: HIPK2 Kinase activity screen
[21] = target: SRSF protein kinase 1 (Homo sapiens) (UniProt Q96SB4); assay: SRPK1 Kinase activity screen
[22] = target: Dual specificity tyrosine-phosphorylation-regulated kinase 1A (Homo sapiens, UniProt Q13627); assay: DYRK1A Kinase activity screen
[23] = target: Dual specificity mitogen-activated protein kinase kinase 1 (Homo sapiens) (UniProt Q02750); assay: MAP2K1 (MEK1) Kinase activity screen
[24] = target: T1, Cyclin-dependent kinase 5/CDK5 activator 1 (Homo sapiens) (UniProt Q00535+Q15078); assay: CDK5/p25 Kinase activity screen; assay type: protein-complex assay
[25] = target: Proto-oncogene tyrosine-protein kinase ROS (Homo sapiens) (UniProt P08922); assay: ROS1 Kinase activity screen
[26] = target: Tyrosine-protein kinase ABL1 (Homo sapiens) (UniProt P00519); assay: ABL1 Kinase activity screen
[27] = target: Aurora kinase A (Homo sapiens) (UniProt O14965); assay: AURKA (Aurora A) Kinase activity screen
[28] = target: RAC-alpha serine/threonine-protein kinase (Homo sapiens) (UniProt P31749); assay: AKT1 (PKB alpha) Kinase activity screen; settings: Compound concentration 0.1 uM
[29] = target: Proto-oncogene tyrosine-protein kinase Src (Homo sapiens) (UniProt P12931); assay: SRC Kinase activity screen
[30] = target: Tyrosine-protein kinase JAK1 (Homo sapiens) (UniProt P23458); assay: JAK1 Kinase activity screen; settings: Compound concentration 0.1 uM
[31] = target: Cyclin-dependent kinase 1/cyclin B (Homo sapiens) (UniProt P06493+P14635+Q8WWL7+O95067); assay: CDK1/cyclin B Kinase activity screen; assay type: protein-complex assay
[32] = target: T1, Cyclin-dependent kinase 5/CDK5 activator 1 (Homo sapiens); assay: CDK5/p35 Kinase activity screen; assay type: protein-complex assay
[33] = target: Ephrin type-A receptor 1 (Homo sapiens) (UniProt P21709); assay: EPHA1 Kinase activity screen
[34] = target: Mitogen-activated protein kinase 3 (Homo sapiens) (UniProt P27361); assay: MAPK3 (ERK1) Kinase activity screen
[35] = target: Dual specificity protein kinase CLK2 (Homo sapiens, UniProt P49760); assay: CLK2 Kinase activity screen
[36] = target: MAP kinase-activated protein kinase 2 (Homo sapiens) (UniProt P49137); assay: MAPKAPK2 Kinase activity screen
[37] = target: PI3-kinase p110-alpha/p85-alpha (Homo sapiens) (UniProt P27986+P42336); assay: PIK3CA/PIK3R1 (p110 alpha/p85 alpha) Kinase activity screen; assay type: protein-complex assay
[38] = target: Ribosomal protein S6 kinase beta-1 (Homo sapiens) (UniProt P23443); assay: RPS6KB1 (p70S6K) Kinase activity screen
[39] = target: Dual specificity protein kinase CLK1 (Homo sapiens, UniProt P49759); assay: CLK1 Kinase activity screen
[40] = target: Mitogen-activated protein kinase 14 (Homo sapiens) (UniProt Q16539); assay: MAPK14 (p38 alpha) Kinase activity screen
[41] = target: Homeodomain-interacting protein kinase 1 (Homo sapiens) (UniProt Q86Z02); assay: HIPK1 (Myak) Kinase activity screen
[42] = Compound concentration 0.123 uM

T1 sequence (Q00535 whole entry): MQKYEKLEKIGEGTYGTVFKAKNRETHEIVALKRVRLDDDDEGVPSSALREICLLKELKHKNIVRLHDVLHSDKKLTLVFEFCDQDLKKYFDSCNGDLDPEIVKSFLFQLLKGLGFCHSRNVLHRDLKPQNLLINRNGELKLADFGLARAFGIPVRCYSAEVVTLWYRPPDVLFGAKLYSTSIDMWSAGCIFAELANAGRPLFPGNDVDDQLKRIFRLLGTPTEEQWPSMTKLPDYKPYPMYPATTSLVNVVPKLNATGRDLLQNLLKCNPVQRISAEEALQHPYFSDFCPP
T1 sequence (Q15078 99-307 partner limits assumed): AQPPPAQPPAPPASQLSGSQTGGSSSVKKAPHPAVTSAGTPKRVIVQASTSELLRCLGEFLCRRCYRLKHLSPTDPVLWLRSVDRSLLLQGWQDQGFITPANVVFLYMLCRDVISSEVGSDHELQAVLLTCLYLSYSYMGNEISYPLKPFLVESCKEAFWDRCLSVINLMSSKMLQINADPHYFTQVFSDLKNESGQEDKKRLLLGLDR
Dual specificity tyrosine-phosphorylation-regulated kinase 1B, sequence (Q9Y463 whole entry, looked up): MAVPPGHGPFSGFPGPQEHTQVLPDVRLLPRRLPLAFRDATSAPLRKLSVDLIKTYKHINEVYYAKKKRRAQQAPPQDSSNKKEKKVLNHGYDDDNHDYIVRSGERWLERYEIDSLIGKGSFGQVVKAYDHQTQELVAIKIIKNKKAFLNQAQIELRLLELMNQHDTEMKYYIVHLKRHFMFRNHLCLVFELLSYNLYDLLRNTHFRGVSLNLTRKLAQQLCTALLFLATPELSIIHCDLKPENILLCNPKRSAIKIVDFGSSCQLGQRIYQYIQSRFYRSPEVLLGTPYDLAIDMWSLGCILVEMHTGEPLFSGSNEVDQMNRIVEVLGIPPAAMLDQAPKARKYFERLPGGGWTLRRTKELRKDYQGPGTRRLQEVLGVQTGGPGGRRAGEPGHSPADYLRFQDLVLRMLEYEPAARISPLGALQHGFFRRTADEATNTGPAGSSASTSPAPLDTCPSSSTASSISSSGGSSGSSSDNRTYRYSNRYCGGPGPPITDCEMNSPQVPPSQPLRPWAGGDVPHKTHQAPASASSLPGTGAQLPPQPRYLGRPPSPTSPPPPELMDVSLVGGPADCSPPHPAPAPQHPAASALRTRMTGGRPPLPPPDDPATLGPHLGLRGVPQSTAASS
D(2) dopamine receptor, sequence (P14416 whole entry): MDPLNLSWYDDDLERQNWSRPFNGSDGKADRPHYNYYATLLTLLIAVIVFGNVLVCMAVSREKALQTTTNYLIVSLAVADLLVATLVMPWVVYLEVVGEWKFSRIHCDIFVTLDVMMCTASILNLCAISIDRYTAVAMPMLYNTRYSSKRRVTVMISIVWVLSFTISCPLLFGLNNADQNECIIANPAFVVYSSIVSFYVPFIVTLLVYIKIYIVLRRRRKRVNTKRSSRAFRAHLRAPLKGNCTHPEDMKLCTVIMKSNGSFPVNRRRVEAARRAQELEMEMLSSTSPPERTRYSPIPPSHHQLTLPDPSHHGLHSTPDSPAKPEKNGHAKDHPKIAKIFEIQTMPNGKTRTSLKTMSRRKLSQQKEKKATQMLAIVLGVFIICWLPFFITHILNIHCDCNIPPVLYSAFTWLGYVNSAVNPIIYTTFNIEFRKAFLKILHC
Kappa-type opioid receptor, sequence (P41145 whole entry): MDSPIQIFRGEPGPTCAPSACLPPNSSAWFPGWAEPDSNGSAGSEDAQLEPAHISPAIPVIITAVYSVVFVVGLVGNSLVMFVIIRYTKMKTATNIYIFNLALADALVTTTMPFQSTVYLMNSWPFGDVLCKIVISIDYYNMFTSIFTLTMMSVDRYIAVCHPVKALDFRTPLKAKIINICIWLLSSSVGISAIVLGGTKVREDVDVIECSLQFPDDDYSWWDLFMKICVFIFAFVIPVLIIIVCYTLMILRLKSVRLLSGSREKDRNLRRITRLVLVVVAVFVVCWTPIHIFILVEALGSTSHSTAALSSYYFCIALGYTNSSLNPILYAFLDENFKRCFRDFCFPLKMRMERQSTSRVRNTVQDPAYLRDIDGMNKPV
Proto-oncogene tyrosine-protein kinase Src (Homo sapiens), sequence (P12931 2-536 limits assumed): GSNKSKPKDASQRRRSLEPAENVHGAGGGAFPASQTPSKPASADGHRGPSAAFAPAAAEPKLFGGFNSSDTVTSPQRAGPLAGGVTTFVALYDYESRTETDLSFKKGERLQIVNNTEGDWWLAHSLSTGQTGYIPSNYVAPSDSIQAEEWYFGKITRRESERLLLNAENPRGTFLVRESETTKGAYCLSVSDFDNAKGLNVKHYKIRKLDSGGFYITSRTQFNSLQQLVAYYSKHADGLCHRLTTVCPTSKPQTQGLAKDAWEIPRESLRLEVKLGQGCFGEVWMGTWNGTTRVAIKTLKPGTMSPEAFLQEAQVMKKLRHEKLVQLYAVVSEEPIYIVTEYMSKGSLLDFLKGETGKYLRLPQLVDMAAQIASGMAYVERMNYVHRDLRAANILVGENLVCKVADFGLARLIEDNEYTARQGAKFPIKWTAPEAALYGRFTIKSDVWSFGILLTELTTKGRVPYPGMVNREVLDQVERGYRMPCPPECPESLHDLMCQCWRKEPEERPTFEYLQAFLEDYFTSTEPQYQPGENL
Alpha-2C adrenergic receptor, sequence (P18825 whole entry): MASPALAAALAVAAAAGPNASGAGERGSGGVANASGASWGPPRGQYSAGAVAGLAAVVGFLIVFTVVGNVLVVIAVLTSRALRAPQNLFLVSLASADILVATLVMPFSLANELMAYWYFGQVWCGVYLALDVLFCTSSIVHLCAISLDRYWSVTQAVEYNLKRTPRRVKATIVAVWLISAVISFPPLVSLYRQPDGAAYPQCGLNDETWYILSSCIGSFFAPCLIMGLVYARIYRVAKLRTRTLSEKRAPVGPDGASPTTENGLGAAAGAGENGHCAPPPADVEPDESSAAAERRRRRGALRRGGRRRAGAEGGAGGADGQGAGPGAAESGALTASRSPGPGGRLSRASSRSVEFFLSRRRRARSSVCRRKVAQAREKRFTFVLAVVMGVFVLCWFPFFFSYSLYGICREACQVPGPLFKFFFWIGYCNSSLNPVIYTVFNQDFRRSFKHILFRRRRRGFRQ
Homeodomain-interacting protein kinase 2 (Homo sapiens), sequence (Q9H2X6 whole entry, looked up): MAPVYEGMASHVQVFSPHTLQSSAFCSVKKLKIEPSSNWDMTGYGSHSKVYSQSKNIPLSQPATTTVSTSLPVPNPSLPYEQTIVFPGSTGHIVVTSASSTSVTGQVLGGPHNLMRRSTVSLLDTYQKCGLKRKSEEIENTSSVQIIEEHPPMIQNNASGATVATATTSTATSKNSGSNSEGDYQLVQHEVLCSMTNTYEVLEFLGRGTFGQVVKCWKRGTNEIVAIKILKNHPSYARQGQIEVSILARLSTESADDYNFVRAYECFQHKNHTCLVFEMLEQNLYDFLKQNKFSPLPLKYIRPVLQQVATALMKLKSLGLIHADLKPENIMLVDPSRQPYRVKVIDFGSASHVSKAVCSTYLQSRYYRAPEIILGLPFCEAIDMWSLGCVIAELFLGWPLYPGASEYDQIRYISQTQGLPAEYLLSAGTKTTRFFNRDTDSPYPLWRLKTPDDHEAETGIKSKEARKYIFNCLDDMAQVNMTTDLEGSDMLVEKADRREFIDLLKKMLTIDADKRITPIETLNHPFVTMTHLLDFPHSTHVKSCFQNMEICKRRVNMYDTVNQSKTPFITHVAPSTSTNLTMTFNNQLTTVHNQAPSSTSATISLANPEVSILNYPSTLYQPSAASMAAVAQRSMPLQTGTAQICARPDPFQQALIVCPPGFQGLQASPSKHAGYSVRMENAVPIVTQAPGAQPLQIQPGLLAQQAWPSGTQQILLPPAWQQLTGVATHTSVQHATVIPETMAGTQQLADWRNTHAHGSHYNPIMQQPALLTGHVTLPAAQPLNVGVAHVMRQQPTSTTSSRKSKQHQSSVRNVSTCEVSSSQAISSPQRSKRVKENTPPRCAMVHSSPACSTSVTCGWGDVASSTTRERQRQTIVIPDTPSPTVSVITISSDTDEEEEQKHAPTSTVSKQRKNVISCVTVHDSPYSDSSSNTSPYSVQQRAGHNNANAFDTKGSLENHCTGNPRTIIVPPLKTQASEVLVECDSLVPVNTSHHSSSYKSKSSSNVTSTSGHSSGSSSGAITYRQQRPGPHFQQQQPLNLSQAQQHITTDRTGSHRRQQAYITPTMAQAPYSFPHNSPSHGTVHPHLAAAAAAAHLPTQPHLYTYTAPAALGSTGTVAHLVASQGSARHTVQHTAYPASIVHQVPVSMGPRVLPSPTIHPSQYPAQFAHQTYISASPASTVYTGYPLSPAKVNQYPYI
Ribosomal protein S6 kinase beta-1 (Homo sapiens), sequence (P23443 whole entry, looked up): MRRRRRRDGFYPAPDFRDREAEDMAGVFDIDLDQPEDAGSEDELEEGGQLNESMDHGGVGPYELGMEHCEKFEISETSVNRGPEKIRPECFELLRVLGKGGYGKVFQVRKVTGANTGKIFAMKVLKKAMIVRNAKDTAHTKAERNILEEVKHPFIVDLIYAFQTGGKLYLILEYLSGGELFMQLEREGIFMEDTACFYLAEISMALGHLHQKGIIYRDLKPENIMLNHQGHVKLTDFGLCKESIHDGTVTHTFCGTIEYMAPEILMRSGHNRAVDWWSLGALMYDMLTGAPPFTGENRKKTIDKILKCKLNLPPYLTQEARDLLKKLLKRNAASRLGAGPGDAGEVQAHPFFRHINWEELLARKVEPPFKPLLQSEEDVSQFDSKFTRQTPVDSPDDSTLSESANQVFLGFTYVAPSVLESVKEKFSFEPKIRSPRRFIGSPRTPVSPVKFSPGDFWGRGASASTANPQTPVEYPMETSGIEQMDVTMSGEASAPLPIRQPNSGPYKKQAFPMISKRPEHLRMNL
Sigma intracellular receptor 2, sequence (Q5BJF2 whole entry): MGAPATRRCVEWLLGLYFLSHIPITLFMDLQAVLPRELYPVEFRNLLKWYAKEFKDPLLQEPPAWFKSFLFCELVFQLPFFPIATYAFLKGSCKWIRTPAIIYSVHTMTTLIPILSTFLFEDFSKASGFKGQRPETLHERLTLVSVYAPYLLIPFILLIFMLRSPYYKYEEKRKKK

CN1CCN(C(=O)C(C)(C)c2ccc(C(=O)Nc3cn4cc(-c5cc(C(C)(C)C)cc(C(C)(C)C)c5)ccc4n3)cc2)CC1 [T3-CLK-N]
1.39 µM: Ki ([4]; read-out: Ki)
< 5: pKi [15]
1.45 µM: Ki [11]
> 10 µM: Ki [15]
1.62 µM: Ki ([10]; read-out: pKi (converted))
0.977 µM: Ki ([1]; read-out: pKi (converted))
active: inhibition [3] 68.3% | inhibition [9] 78.1%
1.73 µM: Ki ([10]; read-out: Ki)
1.35 µM: Ki ([4]; read-out: pKi (converted))
2.75 µM: Ki ([12]; read-out: Ki)
4.02 µM: Ki [8]
2.24 µM: Ki ([14]; read-out: pKi (converted))
2.66 µM: Ki [2]
1.07 µM: Ki ([5]; read-out: Ki)
2.34 µM: Ki ([12]; read-out: pKi (converted))
2.49 µM: Ki ([14]; read-out: Ki)
0.99 µM: Ki ([1]; read-out: Ki)
0.412 µM: Ki [6]
1.05 µM: Ki ([5]; read-out: pKi (converted))
2.56 µM: Ki [7]
inactive: inhibition [13] 30.8%

CN1CCN(C(=O)C(C)(C)c2ccc(C(=O)Nc3cn4cc(-c5ccncc5)ccc4n3)cc2)CC1 [T3-CLK]
inactive: inhibition ([16]; Compound concentration 0.1 uM) -4.09% | inhibition ([16]; Compound concentration 1.0 uM) -6.26% | inhibition ([17]; Compound concentration 0.1 uM) -3.75% | inhibition ([17]; Compound concentration 1.0 uM) -2.73% | inhibition ([18]; Compound concentration 0.1 uM) 11.9% | inhibition ([18]; Compound concentration 1.0 uM) 24.3% | inhibition ([20]; Compound concentration 0.1 uM) -3.6% | inhibition ([20]; Compound concentration 1.0 uM) -1.82% | inhibition [21, 42] -3.09% | inhibition ([21]; Compound concentration 1.11 uM) -2.58% | inhibition ([23]; Compound concentration 0.1 uM) 12.4% | inhibition ([23]; Compound concentration 1.0 uM) 10.9% | inhibition ([24]; Compound concentration 0.1 uM) 1.84% | inhibition ([24]; Compound concentration 1.0 uM) 0.79% | inhibition ([25]; Compound concentration 0.1 uM) -3.68% | inhibition ([25]; Compound concentration 1.0 uM) -0.398% | inhibition ([26]; Compound concentration 0.1 uM) 10.1% | inhibition ([27]; Compound concentration 0.1 uM) 4.51% | inhibition ([27]; Compound concentration 1.0 uM) 8.55% | inhibition [28] -8.24% | inhibition ([29]; Compound concentration 0.1 uM) 13.2% | inhibition ([29]; Compound concentration 1.0 uM) 46.7% | inhibition [30] 10.9% | inhibition ([31]; Compound concentration 0.1 uM) 7.95% | inhibition ([31]; Compound concentration 1.0 uM) 7.1% | inhibition ([32]; Compound concentration 0.1 uM) 1.85% | inhibition ([32]; Compound concentration 1.0 uM) -1.12% | inhibition ([33]; Compound concentration 0.1 uM) -1.64% | inhibition ([33]; Compound concentration 1.0 uM) -0.564% | inhibition ([34]; Compound concentration 0.1 uM) 5.63% | inhibition ([34]; Compound concentration 1.0 uM) 6.05% | inhibition ([36]; Compound concentration 0.1 uM) 3.68% | inhibition ([36]; Compound concentration 1.0 uM) 2.12% | inhibition ([37]; Compound concentration 0.1 uM) 3.58% | inhibition ([37]; Compound concentration 1.0 uM) 3.6% | inhibition ([38]; Compound concentration 0.1 uM) 2.21% | inhibition ([38]; Compound concentration 1.0 uM) 0.698% | inhibition ([40]; Compound concentration 0.1 uM) 4.88% | inhibition ([40]; Compound concentration 1.0 uM) 6.39% | inhibition ([41]; Compound concentration 0.1 uM) -0.71% | inhibition ([41]; Compound concentration 1.0 uM) 2.69%
active: inhibition [19, 42] 62.7% | inhibition ([19]; Compound concentration 1.11 uM) 94.1% | inhibition [22, 42] 74.2% | inhibition ([22]; Compound concentration 1.11 uM) 97.5% | inhibition ([26]; Compound concentration 1.0 uM) 55.7% | inhibition [35, 42] 92.1% | inhibition ([35]; Compound concentration 1.11 uM) 100% | inhibition [39, 42] 91.2% | inhibition ([39]; Compound concentration 1.11 uM) 99.1%
